Test results: ChEMBL document CHEMBL1201862, “PubChem BioAssay data set” (2004)
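A five-concentration, 48-hour dose response in 96-well plates underlies each endpoint, interpolated linearly between surrounding concentrations. At the GI50, growth is halved.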 Active and inactive are the calls of the source. Cut-off read from the data, not from the text of the source: active = GI50 up to about 1.1 µM and inactive = higher.

Key:
Test in all cases: growth of human tumour cells (NCI), 48 h
[1] = system: UACC-62
[2] = system: IGROV-1
[3] = system: M14
[4] = system: HCT-15
[5] = system: COLO 205
[6] = system: RPMI-8226
[7] = system: SN12C
[8] = system: OVCAR-5
[9] = system: SK-MEL-5
[10] = system: CAKI-1
[11] = system: SF-295
[12] = system: 786-0
[13] = system: SK-MEL-28
[14] = system: U-251
[15] = system: HOP-62
[16] = system: MCF7
[17] = system: HCT-116
[18] = system: SNB-75
[19] = system: SF-539
[20] = system: MOLT-4

c1ccc(/C(=N/Nc2cnccn2)c2ncccn2)cc1
GI50 [1]: 88.3 µM (inactive) | GI50 [2]: 23.7 µM (inactive) | GI50 [3]: 78.2 µM (inactive) | GI50 [4]: 50.6 µM | GI50 [5]: 32.1 µM (inactive) | GI50 [6]: > 100 µM (inactive) | GI50 [7]: > 100 µM (inactive) | GI50 [8]: > 100 µM (inactive) | GI50 [9]: 39.9 µM (inactive) | GI50 [10]: 50.9 µM (inactive) | GI50 [11]: > 100 µM (inactive) | GI50 [12]: 81.3 µM (inactive) | GI50 [13]: > 100 µM (inactive) | GI50 [14]: > 100 µM (inactive) | GI50 [15]: 53.5 µM (inactive) | GI50 [16]: > 100 µM (inactive) | GI50 [17]: > 100 µM (inactive) | GI50 [18]: 13.7 µM (inactive) | GI50 [19]: > 100 µM (inactive) | GI50 [20]: 28.6 µM (inactive)

COc1ccc(-c2nnc(-c3ccncc3)o2)cc1
GI50 [1]: > 100 µM (inactive) | GI50 [2]: > 100 µM (inactive) | GI50 [3]: > 100 µM (inactive) | GI50 [4]: > 100 µM | GI50 [5]: > 100 µM (inactive) | GI50 [6]: > 100 µM (inactive) | GI50 [7]: > 100 µM (inactive) | GI50 [8]: > 100 µM (inactive) | GI50 [9]: > 100 µM (inactive) | GI50 [10]: > 100 µM (inactive) | GI50 [11]: > 100 µM (inactive) | GI50 [12]: > 100 µM (inactive) | GI50 [13]: > 100 µM (inactive) | GI50 [14]: > 100 µM (inactive) | GI50 [15]: > 100 µM (inactive) | GI50 [16]: > 100 µM (inactive) | GI50 [17]: > 100 µM (inactive) | GI50 [18]: > 100 µM (inactive) | GI50 [19]: > 100 µM (inactive) | GI50 [20]: > 100 µM (inactive)

CC(C)(/N=N/C(C)(C)C(=N)N)C(=N)N
GI50 [1]: > 100 µM (inactive) | GI50 [2]: > 100 µM (inactive) | GI50 [3]: > 100 µM (inactive) | GI50 [4]: > 100 µM | GI50 [5]: > 100 µM (inactive) | GI50 [6]: > 100 µM (inactive) | GI50 [7]: > 100 µM (inactive) | GI50 [8]: > 100 µM (inactive) | GI50 [9]: > 100 µM (inactive) | GI50 [10]: > 100 µM (inactive) | GI50 [11]: > 100 µM (inactive) | GI50 [12]: > 100 µM (inactive) | GI50 [13]: > 100 µM (inactive) | GI50 [14]: > 100 µM (inactive) | GI50 [15]: > 100 µM (inactive) | GI50 [16]: > 100 µM (inactive) | GI50 [17]: > 100 µM (inactive) | GI50 [18]: > 100 µM (inactive) | GI50 [19]: > 100 µM (inactive) | GI50 [20]: > 100 µM (inactive)
